{"source": "paper PMC6212553", "about": "“Baicalein Enhances the Oral Bioavailability and Hepatoprotective Effects of Silybin Through the Inhibition of Efflux Transporters BCRP and MRP2” (Frontiers in Pharmacology, 2018)", "key": {"MRP2": {"target": "T1, MRP2 (Homo sapiens, UniProt Q92887)", "T1 construct": "host or cells: MDCK II (canine kidney) cells transfected with MRP2", "T1 sequence (Q92887 whole entry)": "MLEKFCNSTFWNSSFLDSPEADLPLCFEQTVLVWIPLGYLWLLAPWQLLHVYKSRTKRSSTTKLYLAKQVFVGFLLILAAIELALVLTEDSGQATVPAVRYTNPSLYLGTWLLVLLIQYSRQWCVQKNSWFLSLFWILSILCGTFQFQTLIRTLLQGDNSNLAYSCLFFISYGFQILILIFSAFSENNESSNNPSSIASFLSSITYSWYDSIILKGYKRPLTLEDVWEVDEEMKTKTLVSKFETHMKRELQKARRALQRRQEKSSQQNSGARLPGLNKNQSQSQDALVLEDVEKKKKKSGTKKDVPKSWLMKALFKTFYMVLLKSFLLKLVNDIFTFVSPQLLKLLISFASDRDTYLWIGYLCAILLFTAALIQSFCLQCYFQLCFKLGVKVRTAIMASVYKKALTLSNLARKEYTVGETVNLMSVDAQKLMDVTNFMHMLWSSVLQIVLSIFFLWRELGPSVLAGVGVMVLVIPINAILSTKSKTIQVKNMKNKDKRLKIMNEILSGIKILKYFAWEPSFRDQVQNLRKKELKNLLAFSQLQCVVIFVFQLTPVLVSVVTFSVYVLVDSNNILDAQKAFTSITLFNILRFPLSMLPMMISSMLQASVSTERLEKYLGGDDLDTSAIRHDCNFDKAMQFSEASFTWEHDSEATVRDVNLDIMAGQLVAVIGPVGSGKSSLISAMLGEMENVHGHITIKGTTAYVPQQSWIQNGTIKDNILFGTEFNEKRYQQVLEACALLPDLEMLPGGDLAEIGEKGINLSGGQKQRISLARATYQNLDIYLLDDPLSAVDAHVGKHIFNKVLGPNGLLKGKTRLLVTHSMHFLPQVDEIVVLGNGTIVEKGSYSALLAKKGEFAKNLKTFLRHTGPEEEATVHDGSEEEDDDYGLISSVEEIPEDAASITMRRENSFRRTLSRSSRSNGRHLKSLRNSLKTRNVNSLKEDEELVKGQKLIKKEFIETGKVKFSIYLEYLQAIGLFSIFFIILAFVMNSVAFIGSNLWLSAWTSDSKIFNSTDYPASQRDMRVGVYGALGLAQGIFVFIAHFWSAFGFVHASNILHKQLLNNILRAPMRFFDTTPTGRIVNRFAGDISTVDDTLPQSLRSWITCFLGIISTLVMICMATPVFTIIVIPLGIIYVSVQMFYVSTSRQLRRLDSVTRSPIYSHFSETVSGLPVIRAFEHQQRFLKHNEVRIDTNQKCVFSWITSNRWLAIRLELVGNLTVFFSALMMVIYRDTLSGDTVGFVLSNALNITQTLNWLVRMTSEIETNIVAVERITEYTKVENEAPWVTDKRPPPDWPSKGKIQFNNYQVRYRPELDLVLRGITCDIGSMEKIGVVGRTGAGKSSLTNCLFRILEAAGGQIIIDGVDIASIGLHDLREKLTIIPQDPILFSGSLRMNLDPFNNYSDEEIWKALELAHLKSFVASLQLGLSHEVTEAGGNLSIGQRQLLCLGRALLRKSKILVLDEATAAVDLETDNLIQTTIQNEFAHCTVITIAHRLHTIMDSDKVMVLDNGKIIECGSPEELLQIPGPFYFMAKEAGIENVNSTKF", "assay": "Bidirectional transport of CDCFDA in MDCKII-MRP2 cells", "assay_type": "cell-based", "method": "Human colon epithelial cell line (Caco-2) was purchased from American Type Culture Collection (Manassas, VA, United States) and frozen at -80°C. Wild type MDCK II, MDR1-MDCK II, BCRP-MDCK II, and MRP2-MDCK II cells were kindly supplied by the Netherlands Cancer Institute (Amsterdam, Netherlands). Transport study was carried out with Caco-2 cells, and MDCK II cells were transfected using a previously established method with slight modifications ([Yuan et al., 2017]). The Caco-2 cells were cultured at 37°C/5% CO2 in Dulbecco’s modified Eagle’s medium (DMEM) supplemented with 10% fetal bovine serum, 1% nonessential amino acids, and 1% penicillin-streptomycin. […]\nBidirectional transport assays for Caco-2 and MDCK II cells were performed by adding silybin (10 μM) in assay buffer into either the apical (AP; A-to-B) or basolateral (BL; B-to-A) chamber, and each 100 μl sample was collected at 30, 60, 90, 120, and 180 min. […] The fluorescence intensity of the sample collected from the AP or BL side was immediately detected in a 96-well black plate by the Microplate UV/VIS spectrophotometer (TECAN Infinite M200 PRO, Männedorf, Switzerland). […]\n(§1) where dQ/dt (mM/s) represents the rate of permeation of the drug across the cells, C0 (mM) refers to the concentration in the donor compartment at time zero calculated from dosing solution, and A (cm^2) refers to the area of the cell monolayer. […]"}, "[1]": {"test_system": "sandwich-cultured rat hepatocytes", "assay": "Biliary excretion in sandwich-cultured rat hepatocytes (SCH)", "assay_type": "in vitro ADME", "method": "Sandwich-cultured rat hepatocytes (SCHs) model was established based on a previously described method with minor modifications ([Swift et al., 2010]). In brief, primary rat hepatocytes were prepared from male Sprague Dawley (SD) rats (220–270 g) using collagenase perfusion as described previously ([Liu et al., 1999]) and then were plated on 6-well plates at a density of 7.4 × 10^5 cells/2 ml/well. Approximately 24 h later, hepatocytes were overlaid with 2 ml of BD Matrigel basement membrane matrix in DMEM (0.25 mg/ml) containing 1% (v/v) insulin/transferrin/selenium culture supplement, […], 2 mM L-glutamine, and 1% penicillin-streptomycin. Hepatocytes were cultured for 4 days with daily medium replacements until the canalicular network was extensively formatted between the cells before the experiment. Evaluation of biliary excretion in SCHs was carried out according to a previously described method ([Liu et al., 1999]). […] Samples were quantified by LC-MS/MS analysis, and the transport function was normalized to the protein content of the hepatocytes. […] Later, the residues were reconstituted with 60 μl of 30% methanol in water containing 1% ascorbic acid, and an aliquot of 10 μl of final solution after centrifugation was analyzed by LC-MS/MS. […] The quantitative linear range for silybin A and B was 5 to 12500 ng/ml."}, "MDR1": {"target": "T2, MDR1 (Homo sapiens, UniProt P08183)", "T2 construct": "host or cells: MDCK II (canine kidney) cells transfected with MDR1", "T2 sequence (P08183 whole entry)": "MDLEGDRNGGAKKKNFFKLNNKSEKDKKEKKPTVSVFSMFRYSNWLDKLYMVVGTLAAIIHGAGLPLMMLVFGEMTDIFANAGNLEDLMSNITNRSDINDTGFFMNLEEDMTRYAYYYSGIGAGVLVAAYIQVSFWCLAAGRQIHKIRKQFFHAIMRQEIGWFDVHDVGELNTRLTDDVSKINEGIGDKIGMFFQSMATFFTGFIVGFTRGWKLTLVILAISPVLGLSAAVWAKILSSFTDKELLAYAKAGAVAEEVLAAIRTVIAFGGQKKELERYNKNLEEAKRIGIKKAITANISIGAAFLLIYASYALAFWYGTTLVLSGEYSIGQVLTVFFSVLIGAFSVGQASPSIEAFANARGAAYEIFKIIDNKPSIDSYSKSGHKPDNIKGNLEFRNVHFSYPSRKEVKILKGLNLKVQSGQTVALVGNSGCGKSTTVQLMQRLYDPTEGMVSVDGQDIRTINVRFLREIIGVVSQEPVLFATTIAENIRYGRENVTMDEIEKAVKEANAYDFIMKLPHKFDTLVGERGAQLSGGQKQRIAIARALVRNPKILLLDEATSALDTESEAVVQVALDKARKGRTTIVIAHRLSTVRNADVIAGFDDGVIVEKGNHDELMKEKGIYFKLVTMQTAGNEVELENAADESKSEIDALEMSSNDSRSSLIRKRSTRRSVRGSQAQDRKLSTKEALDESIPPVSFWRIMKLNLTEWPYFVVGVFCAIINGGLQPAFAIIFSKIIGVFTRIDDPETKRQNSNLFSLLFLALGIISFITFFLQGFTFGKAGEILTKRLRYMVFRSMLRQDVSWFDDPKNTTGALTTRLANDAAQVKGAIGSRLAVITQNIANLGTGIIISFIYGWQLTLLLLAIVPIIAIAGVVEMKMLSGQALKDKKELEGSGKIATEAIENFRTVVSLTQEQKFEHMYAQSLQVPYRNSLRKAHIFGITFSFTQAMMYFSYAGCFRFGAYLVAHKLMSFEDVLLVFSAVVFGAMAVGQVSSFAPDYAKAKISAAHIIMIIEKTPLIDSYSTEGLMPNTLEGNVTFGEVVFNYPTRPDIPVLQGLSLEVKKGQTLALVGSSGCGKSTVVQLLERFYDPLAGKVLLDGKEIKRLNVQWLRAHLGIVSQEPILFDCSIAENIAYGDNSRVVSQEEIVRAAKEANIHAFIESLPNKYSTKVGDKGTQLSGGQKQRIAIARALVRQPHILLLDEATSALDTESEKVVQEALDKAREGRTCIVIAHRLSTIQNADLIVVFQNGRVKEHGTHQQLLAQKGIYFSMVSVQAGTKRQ", "assay": "Bidirectional transport of Rho123 in MDCKII-MDR1 cells", "assay_type": "cell-based", "conditions": "dog, MDCK-MDR1, absence of inhibitor", "method": "(§2) Human colon epithelial cell line (Caco-2) was purchased from American Type Culture Collection (Manassas, VA, United States) and frozen at -80°C. Wild type MDCK II, MDR1-MDCK II, BCRP-MDCK II, and MRP2-MDCK II cells were kindly supplied by the Netherlands Cancer Institute (Amsterdam, Netherlands). […] The Caco-2 cells were cultured at 37°C/5% CO2 in Dulbecco’s modified Eagle’s medium (DMEM) supplemented with 10% fetal bovine serum, 1% nonessential amino acids, and 1% penicillin-streptomycin. The Caco-2 cells were seeded onto polyester filter membranes in a 12-well Transwell® plate (Corning Costar Co., NY, United States) with 0.6 × 10^5 cells/cm^2. […]\n(§3) For inhibition studies, Caco-2 or MDCK II cell monolayers in both apical and basolateral chambers were preincubated with the inhibitor for 30 min. The fluorescence intensity of the sample collected from the AP or BL side was immediately detected in a 96-well black plate by the Microplate UV/VIS spectrophotometer (TECAN Infinite M200 PRO, Männedorf, Switzerland). […]\nas §1, with “monolayer. Papp (B-A) is the Papp value measured in the B to A direction, and Papp (A-B) is the Papp value measured in the A to B direction.” for “monolayer.”"}, "[2]": {"conditions": "ref Lai et al., 2003, cited from earlier work"}, "Caco-2 cells": {"test_system": "Caco-2 cells", "assay": "Bidirectional transport of silybin across Caco-2 cell monolayers", "assay_type": "in vitro ADME, Human", "conditions": "Caco-2 monolayers, silybin 10 μM", "method": "Human colon epithelial cell line (Caco-2) was purchased from American Type Culture Collection (Manassas, VA, United States) and frozen at -80°C. Wild type MDCK II, MDR1-MDCK II, BCRP-MDCK II, and MRP2-MDCK II cells were kindly supplied by the Netherlands Cancer Institute (Amsterdam, Netherlands). Transport study was carried out with Caco-2 cells, and MDCK II cells were transfected using a previously established method with slight modifications ([Yuan et al., 2017]). The Caco-2 cells were cultured at 37°C/5% CO2 in Dulbecco's modified Eagle's medium (DMEM) supplemented with 10% fetal bovine serum, 1% nonessential amino acids, and 1% penicillin-streptomycin. The Caco-2 cells were seeded onto polyester filter membranes in a 12-well Transwell® plate (Corning Costar Co., NY, United States) with 0.6 × 10^5 cells/cm^2. The monolayer cells were used for transport assays between 21 and 23 days. The MDCKII cells were seeded on transwell plates with a density of 2.0 × 10^5 cells/cm^2 and grown for 4-5 days to form a confluent monolayer. Bidirectional transport assays for Caco-2 and MDCK II cells were performed by adding silybin (10 μM) in assay buffer into either the apical (AP; A-to-B) or basolateral (BL; […] For inhibition studies, Caco-2 or MDCK II cell monolayers in both apical and basolateral chambers were preincubated with the inhibitor for 30 min. The fluorescence intensity of the sample collected from the AP or BL side was immediately detected in a 96-well black plate by the Microplate UV/VIS spectrophotometer (TECAN Infinite […], Männedorf, Switzerland). For liquid chromatography tandem-mass spectrometry (LC-MS/MS) analysis, the sample (100 μl) was mixed with methanol (50 μl) containing internal standard (25 ng/ml) and was stored at -80°C. The formula for calculating apparent permeability coefficient (Papp) values is as follows: (1) […] where dQ/dt (mM/s) represents the rate of permeation of the drug across the cells, C0 (mM) refers to the concentration in the donor compartment at time zero calculated from dosing solution, and A (cm^2) refers to the area of the cell monolayer. Papp (B-A) is the Papp value measured in the B to A direction, and Papp (A-B) is the Papp value measured in the A to B direction. The efflux ratio is given as ER = Papp (B to A)/Papp (A to B)."}, "[3]": {"test_system": "CCl4-induced liver injury model", "assay": "CCl4-induced acute liver injury in rats", "assay_type": "in vivo, SD rats", "design": "Nerosis (histologic score, liver H&E) / Haemorrhage (histologic score, liver H&E) / Inflammation (histologic score, liver H&E) / Steatosis (histologic score, liver H&E): scale not given here", "method": "Male SD rats were randomly divided into seven groups: […] (2) Group II, given blank vehicle p.o. for 7 days; (3) Group III, treatment with silybin (100 mg/kg bodyweight, p.o.) for 7 days; […] After 24 h of CCl4 treatment, all rats were sacrificed under ether anesthesia. Blood samples were collected from the abdominal aorta for biochemical estimations. The liver was immediately removed and weighed with a large portion of the liver frozen in liquid nitrogen. The pathological liver changes were examined by hematoxylin and eosin (H&E) staining, which was performed by a pathologist who was blinded to this study. The serum levels of ALT, AST, AKP, and SOD as well as the cytokines TNF- α, IL-6, and IL-1β were detected by the assay kit, according to the manufacturer’s instructions."}, "BCRP": {"target": "T3, BCRP (Homo sapiens, UniProt Q9UNQ0)", "T3 construct": "host or cells: MDCK II (canine kidney) cells transfected with BCRP", "T3 sequence (Q9UNQ0 1-655)": "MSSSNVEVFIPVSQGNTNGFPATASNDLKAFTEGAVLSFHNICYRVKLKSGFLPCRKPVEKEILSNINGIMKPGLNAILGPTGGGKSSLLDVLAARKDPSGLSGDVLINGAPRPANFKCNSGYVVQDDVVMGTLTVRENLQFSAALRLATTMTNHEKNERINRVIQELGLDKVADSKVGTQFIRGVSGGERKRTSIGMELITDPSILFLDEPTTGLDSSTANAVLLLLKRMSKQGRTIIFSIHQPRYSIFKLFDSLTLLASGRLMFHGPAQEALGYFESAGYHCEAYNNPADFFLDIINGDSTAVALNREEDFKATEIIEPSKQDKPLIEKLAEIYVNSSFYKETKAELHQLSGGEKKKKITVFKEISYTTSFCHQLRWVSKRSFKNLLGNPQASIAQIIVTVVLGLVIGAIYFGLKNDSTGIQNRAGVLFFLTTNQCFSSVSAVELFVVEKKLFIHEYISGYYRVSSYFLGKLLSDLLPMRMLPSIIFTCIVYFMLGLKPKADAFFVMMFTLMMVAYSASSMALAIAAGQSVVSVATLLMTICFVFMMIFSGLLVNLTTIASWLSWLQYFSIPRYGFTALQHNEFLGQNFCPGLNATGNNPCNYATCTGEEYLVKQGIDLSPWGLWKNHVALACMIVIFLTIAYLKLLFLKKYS", "assay": "Bidirectional transport of pheophorbide A in MDCKII-BCRP cells", "assay_type": "cell-based", "conditions": "dog, absence of inhibitor", "method": "as §2, §3\nas §1, with “monolayer. Papp (B-A) is the Papp value measured in the B to A direction, and Papp (A-B) is the Papp value measured in the A to B direction.” for “monolayer.”"}, "[4]": {"conditions": "100 mg/kg p.o. 7 days, single agent, CCl4 on day 7"}}}
{"compound": "5(6)-Carboxy-2′,7′-dichlorofluorescein diacetate [CDCFDA]", "values": [{"measurement": "efflux ratio of CDCFDA", "setting": "MRP2", "result": "3.82 ± 0.51"}]}
{"compound": "CN(C)C(=O)CCSC(SCCC(=O)O)c1cccc(/C=C/c2ccc3ccc(Cl)cc3n2)c1", "note": "(centres unmarked) [MK571]", "values": [{"measurement": "effect on biliary excretion of silybin and its conjugates", "setting": "[1]; MK571 50 μM, positive control", "result": "significantly inhibited"}]}
{"compound": "COC(=O)c1ccccc1-c1c2ccc(=N)cc-2oc2cc(N)ccc12", "note": "[Rho123, Rhodamine 123]", "values": [{"measurement": "efflux ratio at 180 min", "setting": "MDR1", "result": "3.68 ± 0.44"}]}
{"compound": "O=c1cc(-c2ccccc2)oc2cc(O)c(O)c(O)c12", "note": "[baicalein, 5,6,7-trihydroxyflavone]", "values": [{"measurement": "glucuronides/sulfates of baicalein in the plasma or cell", "setting": "[2]; after oral administration or dosing in the Caco-2 cell model, Li et al., 2012", "result": 75.7, "unit": "%"}, {"measurement": "absolute absorption", "setting": "[2]; passive diffusion", "result": 40, "unit": "%"}, {"measurement": "lowest effective dosage inhibiting efflux transport of silybin", "setting": "Caco-2 cells", "result": 0.5, "unit": "µM"}, {"measurement": "reduction of the biliary excretion of silybin conjugates", "setting": "[1]; baicalein 25 μM", "result": "~90", "unit": "%"}, {"measurement": "Haemorrhage (histologic score, liver H&E)", "setting": "[3]; [4]", "result": "2.2±0.4"}, {"measurement": "Inflammation (histologic score, liver H&E)", "setting": "[3]; [4]", "result": "2.2±0.8"}, {"measurement": "Nerosis (histologic score, liver H&E)", "setting": "[3]; [4]", "result": "3.0±0.6"}, {"measurement": "Steatosis (histologic score, liver H&E)", "setting": "[3]; [4]", "result": "2.3±0.8"}, {"measurement": "protection of liver injury by baicalein itself", "setting": "[3]; CCl4-induced acute liver injury model", "result": "failed to show significant benefits"}]}
{"compound": "O=C(O)[C@H]1O[C@@H](Oc2cc3oc(-c4ccccc4)cc(=O)c3c(O)c2O)[C@H](O)[C@@H](O)[C@@H]1O", "note": "[baicalin]", "values": [{"measurement": "relative absorption compared with baicalein", "setting": "[2]; after oral administration", "result": 65, "unit": "%"}]}
{"compound": "C=Cc1c(C)c2cc3nc(c4c5[nH]c(cc6nc(cc1[nH]2)C(C)=C6CC)c(C)c5C(=O)[C@@H]4C(=O)OC)[C@@H](CCC(=O)O)[C@@H]3C", "note": "[pheophorbide A]", "values": [{"measurement": "efflux ratio at 180 min", "setting": "BCRP", "result": "2.82 ± 0.13"}]}
